Results as given in patent US5552444A, “Ring-substituted 2-amino-1,2,3,4-tetra-hydronaphthalenes, 3-aminochromanes, and 3-aminothiochromanes” (Eli Lilly and Company, priority 1995, dated 1996).
Structures can show the parent of a compound that is named as a salt.

biological target: T1, 5-HT1A receptor (Rattus norvegicus, UniProt P19327); assay: Inhibition of 3H-8-OH-DPAT binding to rat cerebral cortex synaptosomal membranes (binding at 5HT1a in vitro); parameters: species or system rat (male Sprague-Dawley); conditions: not given
T1 construct: synaptosomal membranes isolated from cerebral cortex; from tissue; host or cells: rat cerebral cortex, crude synaptosomal membranes (male Sprague-Dawley rats, Harlan Industries)
T1 sequence (P19327 1-422): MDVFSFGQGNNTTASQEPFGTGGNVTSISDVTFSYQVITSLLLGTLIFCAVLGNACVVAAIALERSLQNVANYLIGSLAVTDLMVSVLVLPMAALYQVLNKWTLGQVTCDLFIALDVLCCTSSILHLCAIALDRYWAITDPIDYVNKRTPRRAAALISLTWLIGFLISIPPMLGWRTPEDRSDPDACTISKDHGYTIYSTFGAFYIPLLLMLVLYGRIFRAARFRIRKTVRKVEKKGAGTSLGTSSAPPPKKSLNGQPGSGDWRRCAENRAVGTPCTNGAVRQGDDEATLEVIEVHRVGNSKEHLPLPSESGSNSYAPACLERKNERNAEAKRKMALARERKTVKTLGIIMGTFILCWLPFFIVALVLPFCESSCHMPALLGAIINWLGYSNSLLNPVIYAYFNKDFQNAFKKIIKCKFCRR
Experimental: This general procedure is set forth in Wong et al., J. Neural Transm. 71:207-218 (1988).
Male Sprague-Dawley rats (110-150 g) from Harlan Industries (Cumberland, Ind.) were fed a Purina Chow ad libitum for at least 3 days before being used in the studies. Rats were killed by decapitation. The brains were rapidly removed, and the cerebral cortices were dissected out at 4° C.
Brain tissues were homogenized in 0.32M sucrose. After centrifugation at 1000×g for 10 min and then at 17000×g for 20 min, a crude synaptosomal fraction was sedimented. The pellet was suspended in 100 vol of 50 mM Tris-HCl, pH 7.4, incubated at 37° C. for 10 min, and centrifuged at 50000×g for 10 min. The process was repeated and the final pellet was suspended in ice-chilled 50 mM Tris-HCl, pH 7.4. By the radioligand binding method, sites specifically labeled by tritiated 8-hydroxy-2-dipropylamino-1,2,3,4-tetrahydronaphthalene (^3 H-8-OH-DPAT) have been identified as 5-HT1A receptors.
Binding of (^3 H-8-OH-DPAT) was performed according to the previously described method [Wong et al., J. Neural Transm. 64:251-269 (1985)]. Briefly, synaptosomal membranes isolated from cerebral cortex were incubated at 37° C. for 10 min. in 2 ml of 50 mM Tris-HCl, pH 7.4; 10 μM pargyline; 0.6 mM ascorbic acid; 0.4 nM ^3 H-8-OH-DPAT; and from 1 to 1000 nM of test compound. Binding was terminated by filtering samples under reduced pressure through glass fiber (GFB) filters. The filters were washed twice with 5 ml of ice cold buffer and placed in scintillation vials with 10 ml of PCS (Amersham/Searle) scintillation fluid. Radioactivity was measured with a liquid scintillation spectrometer. Unlabeled 8-OH-DPAT at 10 μM was also included in separate samples to establish non-specific binding. Specific binding of ^3 H-8-OH-DPAT is defined as the difference of radioactivity bound in the absence and in the presence of 10 μM unlabeled 8-OH-DPAT.

Compound | IC50 [nM]
CCCN(CCC)C1CCc2cccc(C(=O)C(C)(C)C)c2C1 (stereo not drawn) [Example 7, 2-Di-n-propylamino-8-dimethylpropionyl-1,2,3,4-tetrahydronaphthalene, hydrobromide salt] | 9

same assay, conditions: rat cerebral cortex membranes; 0.4 nM 3H-8-OH-DPAT; 37° C., 10 min; pH 7.4; read-out: IC50, concentration of test compound required to inhibit the binding of 3H-8-OH-DPAT by 50%

Compound | IC50 [nM]
CCCCC(=O)c1cccc2c1CC(N(CCC)CCC)CC2 (stereo not drawn) [Example 1, 2-Di-n-propylamino-8-pentanoyl-1,2,3,4-tetrahydronaphthalene, oxalate salt] | 2.2
CCCN(CCC)C1CCc2cccc(C(=O)C(F)(F)F)c2C1 (stereo not drawn) [Example 2, 2-Di-n-propylamino-8-trifluoroacetyl-1,2,3,4-tetrahydronaphthalene, hydrobromide salt] | 29
CCCN(CCC)C1CCc2cccc(C(=O)CC)c2C1 (stereo not drawn) [Example 3, 2-Di-n-propylamino-8-propionyl-1,2,3,4-tetrahydronaphthalene, oxalate salt] | 0.8
CCCC(=O)c1cccc2c1CC(N(CCC)CCC)CC2 (stereo not drawn) [Example 4, 2-Di-n-propylamino-8-butanoyl-1,2,3,4-tetrahydronaphthalene,hydrobromide salt] | 3
CCCN(CCC)C1CCc2cccc(C(=O)C(C)C)c2C1 (stereo not drawn) [Example 5, 2-Di-n-propylamino-8-(α-methylpropionyl)-1,2,3,4-tetrahydronaphthalene, hydrobromide salt] | 0.4
CCCN(CCC)C1CCc2cccc(C(=O)CC(C)C)c2C1 (stereo not drawn) [Example 6, 2-Di-n-propylamino-8-(β-methylbutyryl)-1,2,3,4-tetrahydronaphthalene,hydrobromide salt] | 0.4
CCCN(CCC)C1CCc2cccc(C(=O)C3CCCCC3)c2C1 (stereo not drawn) [Example 8, 2-Di-n-propylamino-8-cyclohexanecarbonyl-1,2,3,4-tetrahydronaphthalene, oxalate salt] | 0.5
CCCN(CCC)C1CCc2cccc(C(=O)c3ccccc3)c2C1 (stereo not drawn) [Example 9, 2-Di-n-propylamino-8-benzoyl-1,2,3,4-tetrahydronaphthalene, tosylate salt] | 3.7
CCCN(CCC)C1CCc2cccc(C(=O)c3ccccc3F)c2C1 (stereo not drawn) [Example 11, 2-Di-n-propylamino-8-(o-fluorobenzoyl)-1,2,3,4-tetrahydronaphthalene, p-toluenesulfonic acid salt] | 0.8
CCCN(CCC)C1CCc2cccc(C(=O)COC)c2C1 (stereo not drawn) [Example 12, 2-Di-n-propylamino-8-(methoxyacetyl)-1,2,3,4-tetrahydronaphthalene oxalate] | 5.8
CCCN(CCC)C1CCc2cccc(C(C)=O)c2C1 (stereo not drawn) [Example 13, 2-Di-n-propylamino-8-acetyl-1,2,3,4-tetrahydronaphthalene] | 0.8
